The text below walks through data of patent publication US12435088B2, “Salicyl-adenosinemonosulfamate analogs and uses thereof” (priority 2018, dated 2025).

Converted amounts (≈) assume the structure as drawn. Read-outs that look alike come from different tables or passages of the source. Marks after values point to notes of the source that are not given here.

The subject of one data set is Msm ΔM. The class given is cell-based, Mycobacterium smegmatis.
Data set [1] has as its system M. smegmatis ΔEM-pMbtAtb. Description: microbe, parasite or virus in culture. In kind it is cell-based, Mycobacterium smegmatis. Conditions: for MIC (μg/ml), mean / MIC (μg/ml), range: GASTD medium, three independent experiments.
The test system of a further data set is M. tuberculosis H37Rv. Description: Growth inhibition assay (Alamar Blue MIC) for M. tuberculosis H37Rv. In kind it is cell-based, Mycobacterium tuberculosis. The settings on record: at least 90% inhibition, 7 days.
The test system of data set [2] is M. smegmatis ΔEM-pMbtAtb. As to the kind of experiment: Post-antibiotic effect (PAE) washout assay.
Procedure: Cells from mid-log growth phase cultures of Msm ΔEM-pMbtAtb in GASTD medium (37° C., 170 rpm, OD600≈0.75) were harvested by centrifugation and washed in GASTD medium (3 times with I culture volume). The washed cells were resuspended in GASTD medium and transferred to U-bottom 96-well cell culture plates (Corning, Inc.) for inhibitor exposure at a cell density corresponding to OD600=1.0 (50 μL/well). […] Inhibitors were added from 10% DMSO stock solutions, with a final DMSO concentration of 1% in both inhibitor-exposed cultures and DMSO controls (no inhibitor). […] The 96-well plates were incubated for culture growth at 37° C. in a FLUOstar Optima microplate reader (BMG Labtech, Inc.), and OD600 readings were taken every 30 min following plate shaking (5 min, 200 rpm) for 5 days. The growth vs. time datasets were analyzed to determine the time at which cultures reached an exponential growth phase threshold of OD600=0.05 (≈5% of maximal growth) (FIG. 8). The time-to-threshold data were used to calculate PAE as the difference between the time-to-threshold values of the inhibitor-exposed culture and the control cultures (Stubbings, W. J., et al. (2004) J. Antimicrob. Chemother. 54, 139-143). Data presented are derived from three independent experiments.
The subject of the next data set is Msm WT. As to the kind of experiment: Growth inhibition microdilution assay, Msm WT. The class given is cell-based, Mycobacterium smegmatis.
Another data set concerns Msm ΔEM. The class given is cell-based, Mycobacterium smegmatis. Conditions: GASTD + Fe medium.
The target in the next data set is MbtAtb (Mycobacterium tuberculosis (strain ATCC 25618 / H37Rv), UniProt P71716). The settings on record: cited from earlier work.
Sequence of MbtAtb (P71716 whole entry, looked up): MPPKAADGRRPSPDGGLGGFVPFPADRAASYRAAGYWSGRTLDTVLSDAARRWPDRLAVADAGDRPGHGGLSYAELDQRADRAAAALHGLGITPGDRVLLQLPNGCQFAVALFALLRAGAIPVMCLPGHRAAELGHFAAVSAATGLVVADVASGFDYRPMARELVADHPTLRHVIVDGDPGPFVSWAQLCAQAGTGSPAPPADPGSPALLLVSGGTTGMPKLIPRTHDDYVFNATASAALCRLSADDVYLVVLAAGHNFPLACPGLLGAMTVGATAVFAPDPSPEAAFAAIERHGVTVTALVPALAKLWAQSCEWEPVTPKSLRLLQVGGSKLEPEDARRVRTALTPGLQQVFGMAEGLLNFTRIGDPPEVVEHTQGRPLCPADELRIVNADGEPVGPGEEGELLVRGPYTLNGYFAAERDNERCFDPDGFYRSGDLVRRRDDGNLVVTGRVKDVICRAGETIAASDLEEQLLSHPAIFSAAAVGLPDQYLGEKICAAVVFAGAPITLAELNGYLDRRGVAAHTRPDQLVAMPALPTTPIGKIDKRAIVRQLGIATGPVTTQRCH
The test system of another data set is mammalian cells. Conditions: cited from earlier work.
For the next data set, the system named is Msm ΔE. The class given is cell-based, Mycobacterium smegmatis.
Data set [3] concerns MBT production in Msm ΔEM-pMbtAtb. In kind it is cell-based, Mycobacterium smegmatis. The settings on record: FIG. 7, radio-TLC.
A further data set has as its system Mtb. The settings on record: cited from earlier work.
A further data set concerns PPT/PNP coupling system. As to the kind of experiment: Off-target control: effect on PPT/PNP coupling system of the HA-MesG assay. The class given is biochemical. The method, then: The adenylation activity of H10MbtA^opt and its inhibition were evaluated using a H10MbtA^opt-optimized variation of the hydroxylamine-7-methyl-6-thioguanosine (HA-MesG) spectrophotometric assay (Wilson, D. J., et al. (2010) Anal. Biochem. 404, 56-63). The assay was carried out in a 96-well plate format as previously reported (Davis, T. D., et al. (2016) Bioorg. Med. Chem. Lett. 26, 5340-5345). The assay reaction mixture was optimized for H10MbtAopt activity. Optimization experiments included evaluation of various concentrations of Tris·HCl (and pH), hydroxylamine, MesG, ATP, NaCl, MgCl2, glycerol, reducing agents (DTT and TCEP), and detergent (IGEPAL, CHAPS, and Triton-X100). Unless otherwise indicated for specific experiments, the optimized assay reaction mixture contained the following: 50 mM Tris·HCl, pH 8.0; 3 mM MgCl2; 0.5 mM DTT; 0.1 U purine nucleoside phosphorylase (PNP); 0.04 U inorganic pyrophosphatase (PPT); 450 mM hydroxylamine; 0.4 mM MesG; 1 mM ATP; 300 μM salicylic acid; 0.01% CHAPS buffer; 7.5% ultrapure glycerol; and H10MbtA^opt at concentrations noted for specific experiments. […] Reactions were preincubated for 10 min at 25° C. before being initiated by the addition of either salicylic acid for steady state kinetic analysis or H10MbtA^opt for progress curve analysis. The phosphorolysis of MesG was measured continuously at either regular 1-min intervals (for steady state kinetic analysis) or 25-sec intervals (for progress curves analysis) for up to 45 min, at 360 nm and 25° C. in a DTX 880 multimode detector microplate reader (Beckman Coulter, Inc.).

Data set [4] has as its target T1, H10MbtA^opt (MbtAtb) (Mycobacterium tuberculosis (strain ATCC 25618 / H37Rv), UniProt P71716). As to the kind of experiment: biochemical.
The target in data set [5] is T1, H10MbtA^opt (MbtAtb). Description: Progress curve analysis of H10MbtA^opt inhibition (HA-MesG assay). In kind it is biochemical.
Where [6] appears, read: Table 8, GASTD + Fe medium, tested up to 64 μg/mL.
The mark [7] stands for this setting: Mycolicibacterium smegmatis, read-out: MIC (μg/ml), mean.
Where [8] appears, read: IC50 (nM), H10MbtA^opt at 250 nM, two independent dose-response experiments.
The mark [9] stands for this setting: IC50, preliminary dose-response experiment (vi/vo vs. log[inhibitor]), FIG. 4A-C, single experiment, inhibition of H10MbtA^opt.

T1 sequence (P71716 whole entry, added parts left off): as the sequence (P71716 whole entry, looked up) above

Regarding “5′-O—[N-salicylsulfamoyl]adenosine [compound 1]”, the “MIC” value was over 1000 µg/mL with Msm ΔM (GASTD + Fe medium); over 1000 µg/mL against Msm ΔM (GASTD medium (Fe-limiting)); over 1000 µg/mL with M. smegmatis ΔEM-pMbtAtb [1] (Table 7, Msm ΔEM-pMbtAtb (−/+), GASTD + Fe medium); 0.5 to 1.0 µg/mL in the data set on M. smegmatis ΔEM-pMbtAtb [1] (Table 7, Msm ΔEM-pMbtAtb (−/+), GASTD medium (Fe-limiting)); over 64 µg/mL in the data set on M. smegmatis ΔEM-pMbtAtb [1] (setting [6]); 0.5 to 1.0 µg/mL in the data set with M. tuberculosis H37Rv (GAST-D + Fe medium (100 μM FeCl3)). Also, the “MIC” value against M. tuberculosis H37Rv (GAST-D medium) was 0.125 to 0.25 µg/mL; in the data set with Msm WT (GASTD + Fe medium), over 1000 µg/mL; against Msm WT (GASTD medium (Fe-limiting)) it was over 1000 µg/mL; in the data set on Msm ΔEM it was over 1000 µg/mL; with Msm ΔE (GASTD + Fe medium), over 1000 µg/mL; in the data set with Msm ΔE (GASTD medium (Fe-limiting)), 0.5 to 1.0 µg/mL. Besides, in the data set on M. smegmatis ΔEM-pMbtAtb [1] (Table 8), the “MIC (μg/ml), mean” value is 0.83 ± 8.17 µg/mL. In the data set with M. smegmatis ΔEM-pMbtAtb [1] (Table 8), the “MIC (μg/ml), range” value was 0.5-1.0^b μg/ml. In addition, the entries for the “PAE” value in the data set on M. smegmatis ΔEM-pMbtAtb [2] (1 h exposure at 5 × MIC), in the data set with M. smegmatis ΔEM-pMbtAtb [2] (1 h exposure at 50 × MIC) and in the data set on M. smegmatis ΔEM-pMbtAtb [2] (1 h exposure at 100 × MIC) were 9.4 ± 1.6 h, 14.2 ± 0.9 h and 34.5 ± 1.8 h, respectively. For the same compound, the “Inhibition of MbtAtb (previous in vitro studies)” value on MbtAtb is recorded as “potent, selective, tight-binding inhibitor”. Also, the “Cytotoxicity against mammalian cells” value in the data set on mammalian cells is given as “not cytotoxic”. In addition, in data set [3], the “Effect on MBT production” value is “inhibited MBT production”. Moreover, in the data set on Mtb (monotherapy at 5.6 or 16.7 mg/kg), the “Mtb growth in the mouse lung” value was “significant reduction of Mtb growth in the mouse lung”. Besides, in the data set on Mtb (mouse), the “Dose at which in vivo toxicity was observed” value is given as at least 16.7 mg/kg.
Turning to `Nc1ncnc2c1ncn2[C@@H]1OC(CNS(=O)(=O)NC(=O)c2ccccc2O)[C@@H](O)[C@H]1O` (some centres unmarked) [4a, salicyl-AMSN], the “Fractional velocity v1/v0” value in the data set on PPT/PNP coupling system ([inhibitor] = 4 μM) came out at 0.94; in the data set on PPT/PNP coupling system ([inhibitor] = 40 µM), 0.96. Moreover, the “MIC” value in the data set on M. smegmatis ΔEM-pMbtAtb [1] (setting [6]) was over 64 µg/mL. In the data set with M. smegmatis ΔEM-pMbtAtb [1] (Table 8), the “MIC (μg/ml), mean” value was determined as 1.00 ± 0 µg/mL (≈ 2.15 µM). The “MIC (μg/ml), range” value in the data set on M. smegmatis ΔEM-pMbtAtb [1] (Table 8) came out at 1.0 µg/mL (≈ 2.15 µM). In addition, the results for the “PAE” value in the data set on M. smegmatis ΔEM-pMbtAtb [2] (1 h exposure at 5 × MIC), in the data set with M. smegmatis ΔEM-pMbtAtb [2] (1 h exposure at 50 × MIC) and with M. smegmatis ΔEM-pMbtAtb [2] (1 h exposure at 100 × MIC) were 10.6 ± 2.7 h, 18.7 ± 1.3 h and 23.1 ± 3.1 h, respectively. Besides, on H10MbtA^opt (MbtAtb) [4] (H10MbtA^opt at 250 nM, two independent dose-response experiments, read-out: IC50), the IC50 came out at 246 ± 2.9 nM. In addition, the Ki on H10MbtA^opt (MbtAtb) [5] (H10MbtA^opt 1 μM, inhibitor 4,000-1,041 nM, minimum of five independent experiments, read-out: Ki^app) worked out at 0.295 ± 0.0239 µM.
Turning to `CN(C[C@H]1O[C@@H](n2cnc3c(N)ncnc32)[C@H](O)[C@@H]1O)S(=O)(=O)NC(=O)c1ccccc1O` [4b, N—(N-(((2R,3S,4R,5R)-5-(6-Amino-9H-purin-9-yl)-3,4-dihydroxytetrahydrofuran-2-yl)-methyl)-N-methylsulfamoyl)-2-hydroxybenzamide], in the data set with M. smegmatis ΔEM-pMbtAtb [1] (setting [7]), the MIC turned out to be 0.83 ± 0.17 µg/mL (≈ 1.73 µM). Moreover, the “MIC (μg/ml), range” value against M. smegmatis ΔEM-pMbtAtb [1] (Table 8) was 0.5 to 1.0 µg/mL. The “PAE” value with M. smegmatis ΔEM-pMbtAtb [2] (1 h exposure at 5 × MIC) worked out at 13.4 ± 2.6 h; in the data set with M. smegmatis ΔEM-pMbtAtb [2] (1 h exposure at 50 × MIC), 17.4 ± 4.7 h; in the data set on M. smegmatis ΔEM-pMbtAtb [2] (1 h exposure at 100 × MIC) it was 10.4 ± 2.2 h. In addition, the figures for the IC50 against H10MbtA^opt (MbtAtb) [4] (setting [8]) and against H10MbtA^opt (MbtAtb) [4] (setting [9]) were 175 ± 4.3 nM and 179 nM, respectively. In addition, at H10MbtA^opt (MbtAtb) [5], the Ki came out at 0.159 ± 0.0081 µM.
`COc1ncnc2c1ncn2[C@@H]1O[C@H](CNS(=O)(=O)NC(=O)c2ccccc2O)[C@@H](O)[C@H]1O` [compound 6, N—(N-(((2R,3S,4R,5R)-3,4-Dihydroxy-5-(6-methoxy-9H-purin-9-yl)tetrahydrofuran-2-yl)methyl)sulfamoyl)-2-hydroxybenzamide]: the “Fractional velocity v1/v0” value in the data set with PPT/PNP coupling system ([inhibitor] = 4 μM) and in the data set with PPT/PNP coupling system ([inhibitor] = 40 µM) was 1.00 in each case. Besides, the MIC with M. smegmatis ΔEM-pMbtAtb [1] (setting [7]) is 5.33 ± 1.33 µg/mL (≈ 11.1 µM); in the data set on M. smegmatis ΔEM-pMbtAtb [1] (setting [6]), over 64 µg/mL; in the data set on M. tuberculosis H37Rv (Mycobacterium tuberculosis, H37RV, 168 h, GAST-D + Fe medium (100 μM FeCl3), read-out: MIC), 0.5 to 1 µg/mL; with M. tuberculosis H37Rv (Mycobacterium tuberculosis, H37RV, 168 h, GAST-D medium, read-out: MIC), 0.125 to 0.25 µg/mL (≈ 0.26 to 0.52 µM). For the same compound, the “MIC (μg/ml), range” value in the data set on M. smegmatis ΔEM-pMbtAtb [1] (Table 8) was 4.0 to 8.0 µg/mL. Further, the “Inhibitor behavior (IC50≈½ [E])” value at H10MbtA^opt (MbtAtb) [4] (HA-MesG assay) is “tight-binding inhibitor behavior”. The IC50 was determined as 289 ± 16.4 nM on H10MbtA^opt (MbtAtb) [4] (setting [8]) and 273 nM against H10MbtA^opt (MbtAtb) [4] (setting [9]). The same compound showed a Ki on H10MbtA^opt (MbtAtb) [5] of 0.277 ± 0.0122 µM. Moreover, on H10MbtA^opt (MbtAtb) [5] (time-dependent inhibition of H10MbtAopt), the “Mechanism of inhibition from progress curves” value was “slow-onset inhibitors”.
`O=C(NS(=O)(=O)O)c1ccccc1O` [compound 8, salicyl-sulfamate]: at H10MbtA^opt (MbtAtb) [4] (IC50 (mM), effect on the MbtAtb-dependent signal in the HA-MesG assay, salicyl-AMS fragments, nonspecific inhibition control), the concentration for half-maximal inhibition (IC50) is about 1e+06 nM.
